Data taken from ChEMBL document CHEMBL5291721, “A preclinical secondary pharmacology resource illuminates target-adverse drug reaction associations of marketed drugs” (Nat Commun, 2023).

How the values were obtained:
[1] = target: T1, 5-hydroxytryptamine receptor 2C (Homo sapiens, UniProt P28335)
T1 sequence (P28335 whole entry): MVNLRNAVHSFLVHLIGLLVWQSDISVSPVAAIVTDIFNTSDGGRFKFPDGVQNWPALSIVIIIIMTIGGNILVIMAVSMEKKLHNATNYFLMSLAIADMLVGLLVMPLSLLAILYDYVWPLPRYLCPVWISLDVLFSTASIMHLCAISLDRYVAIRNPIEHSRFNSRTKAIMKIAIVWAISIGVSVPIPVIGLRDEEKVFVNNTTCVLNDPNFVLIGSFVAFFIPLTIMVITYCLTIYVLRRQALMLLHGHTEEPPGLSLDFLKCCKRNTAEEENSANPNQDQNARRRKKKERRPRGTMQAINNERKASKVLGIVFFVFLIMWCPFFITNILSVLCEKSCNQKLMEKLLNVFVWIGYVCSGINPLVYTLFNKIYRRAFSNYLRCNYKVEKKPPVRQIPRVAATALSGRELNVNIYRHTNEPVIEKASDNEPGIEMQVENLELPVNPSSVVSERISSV

[2] = target: 5-hydroxytryptamine receptor 2B (Homo sapiens, UniProt P41595); format: functional, cell-based
Chain of 5-hydroxytryptamine receptor 2B (P41595 whole entry): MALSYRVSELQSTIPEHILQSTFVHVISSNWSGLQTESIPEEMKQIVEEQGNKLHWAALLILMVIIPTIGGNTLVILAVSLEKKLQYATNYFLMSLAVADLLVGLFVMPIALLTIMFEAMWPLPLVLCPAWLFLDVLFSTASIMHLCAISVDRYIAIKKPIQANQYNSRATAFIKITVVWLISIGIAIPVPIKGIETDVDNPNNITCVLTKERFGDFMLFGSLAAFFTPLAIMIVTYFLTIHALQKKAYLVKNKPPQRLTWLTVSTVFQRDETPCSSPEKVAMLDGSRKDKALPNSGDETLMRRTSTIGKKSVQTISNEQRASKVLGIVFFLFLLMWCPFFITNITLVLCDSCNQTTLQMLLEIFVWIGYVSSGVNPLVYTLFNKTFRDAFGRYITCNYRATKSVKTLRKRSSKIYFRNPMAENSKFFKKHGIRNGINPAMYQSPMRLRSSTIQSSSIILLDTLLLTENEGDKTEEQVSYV

[3] = target: T2, 5-hydroxytryptamine receptor 1A (Homo sapiens, UniProt P08908); format: functional, cell-based
T2 sequence (P08908 whole entry): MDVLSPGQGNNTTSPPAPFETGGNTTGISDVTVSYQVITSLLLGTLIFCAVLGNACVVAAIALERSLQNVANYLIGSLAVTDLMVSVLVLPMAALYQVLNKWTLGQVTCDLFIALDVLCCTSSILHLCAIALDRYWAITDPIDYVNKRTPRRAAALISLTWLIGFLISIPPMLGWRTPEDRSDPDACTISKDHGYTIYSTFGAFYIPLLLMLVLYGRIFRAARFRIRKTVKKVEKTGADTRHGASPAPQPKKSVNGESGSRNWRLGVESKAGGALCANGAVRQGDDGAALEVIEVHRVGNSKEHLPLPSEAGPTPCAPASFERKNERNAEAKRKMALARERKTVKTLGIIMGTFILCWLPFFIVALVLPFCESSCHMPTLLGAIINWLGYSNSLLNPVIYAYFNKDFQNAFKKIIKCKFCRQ

[4] = target: T3, Muscarinic acetylcholine receptor M1 (Homo sapiens, UniProt P11229); format: functional
T3 sequence (P11229 whole entry): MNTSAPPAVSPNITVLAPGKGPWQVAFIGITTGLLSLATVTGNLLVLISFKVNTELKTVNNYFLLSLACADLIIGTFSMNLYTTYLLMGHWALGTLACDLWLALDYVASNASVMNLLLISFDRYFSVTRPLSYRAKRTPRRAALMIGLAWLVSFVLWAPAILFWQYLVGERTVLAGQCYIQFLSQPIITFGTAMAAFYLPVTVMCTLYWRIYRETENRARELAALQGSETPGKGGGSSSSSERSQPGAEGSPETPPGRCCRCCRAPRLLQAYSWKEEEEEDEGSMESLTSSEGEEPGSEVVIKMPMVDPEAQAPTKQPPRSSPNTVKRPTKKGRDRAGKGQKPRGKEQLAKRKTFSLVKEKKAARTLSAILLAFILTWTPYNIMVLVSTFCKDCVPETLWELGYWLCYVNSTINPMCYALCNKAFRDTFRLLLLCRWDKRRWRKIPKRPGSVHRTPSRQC

[5] = target: Gamma-aminobutyric acid receptor subunit alpha-1 (Rattus norvegicus, UniProt P62813)
Chain of Gamma-aminobutyric acid receptor subunit alpha-1 (P62813 whole entry): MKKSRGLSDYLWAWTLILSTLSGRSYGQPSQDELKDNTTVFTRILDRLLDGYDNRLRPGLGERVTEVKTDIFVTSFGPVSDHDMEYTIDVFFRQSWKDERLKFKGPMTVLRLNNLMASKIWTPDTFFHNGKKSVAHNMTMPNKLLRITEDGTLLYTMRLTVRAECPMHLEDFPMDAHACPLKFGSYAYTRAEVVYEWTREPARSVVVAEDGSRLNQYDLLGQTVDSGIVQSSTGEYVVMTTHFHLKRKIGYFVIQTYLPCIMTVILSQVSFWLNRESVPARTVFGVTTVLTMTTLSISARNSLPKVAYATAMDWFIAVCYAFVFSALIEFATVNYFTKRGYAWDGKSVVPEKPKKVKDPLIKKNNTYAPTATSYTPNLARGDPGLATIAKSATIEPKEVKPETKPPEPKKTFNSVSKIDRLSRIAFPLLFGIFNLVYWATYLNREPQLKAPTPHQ

[6] = target: Sodium-dependent serotonin transporter (Homo sapiens, UniProt P31645)
Chain of Sodium-dependent serotonin transporter (P31645 whole entry): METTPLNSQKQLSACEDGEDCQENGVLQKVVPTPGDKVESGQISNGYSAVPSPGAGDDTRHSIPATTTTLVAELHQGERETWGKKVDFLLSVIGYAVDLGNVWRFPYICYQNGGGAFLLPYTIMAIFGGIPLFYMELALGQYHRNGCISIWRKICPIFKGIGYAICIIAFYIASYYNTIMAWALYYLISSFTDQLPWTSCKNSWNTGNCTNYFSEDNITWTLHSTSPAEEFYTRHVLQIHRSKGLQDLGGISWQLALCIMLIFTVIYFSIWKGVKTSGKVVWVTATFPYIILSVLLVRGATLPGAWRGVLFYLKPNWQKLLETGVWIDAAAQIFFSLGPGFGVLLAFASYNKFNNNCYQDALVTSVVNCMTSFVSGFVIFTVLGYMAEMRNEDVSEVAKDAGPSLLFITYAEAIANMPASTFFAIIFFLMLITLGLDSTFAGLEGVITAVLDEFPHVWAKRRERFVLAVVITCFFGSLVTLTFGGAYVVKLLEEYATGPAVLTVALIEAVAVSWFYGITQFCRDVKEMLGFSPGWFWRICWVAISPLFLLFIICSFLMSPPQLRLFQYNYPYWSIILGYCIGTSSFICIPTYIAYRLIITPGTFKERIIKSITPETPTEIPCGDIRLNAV

[7] = target: T4, Alpha-1A adrenergic receptor (Homo sapiens, UniProt P35348); format: functional, cell-based
T4 sequence (P35348 whole entry): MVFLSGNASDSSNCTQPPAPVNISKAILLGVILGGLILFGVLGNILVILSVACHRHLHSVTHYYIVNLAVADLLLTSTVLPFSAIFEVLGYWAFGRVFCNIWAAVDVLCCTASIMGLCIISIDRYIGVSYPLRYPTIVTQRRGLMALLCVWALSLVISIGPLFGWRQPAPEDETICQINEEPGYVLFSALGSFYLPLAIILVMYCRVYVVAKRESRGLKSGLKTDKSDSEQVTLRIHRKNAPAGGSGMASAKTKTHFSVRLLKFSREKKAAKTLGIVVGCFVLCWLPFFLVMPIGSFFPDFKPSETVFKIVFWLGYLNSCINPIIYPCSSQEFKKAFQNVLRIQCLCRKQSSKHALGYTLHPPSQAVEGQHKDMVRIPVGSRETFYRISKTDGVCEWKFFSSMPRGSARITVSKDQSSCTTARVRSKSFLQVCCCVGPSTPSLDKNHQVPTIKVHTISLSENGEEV

Progesterone receptor = target: T5, Progesterone receptor (Homo sapiens, UniProt P06401); format: functional
T5 sequence (P06401 whole entry): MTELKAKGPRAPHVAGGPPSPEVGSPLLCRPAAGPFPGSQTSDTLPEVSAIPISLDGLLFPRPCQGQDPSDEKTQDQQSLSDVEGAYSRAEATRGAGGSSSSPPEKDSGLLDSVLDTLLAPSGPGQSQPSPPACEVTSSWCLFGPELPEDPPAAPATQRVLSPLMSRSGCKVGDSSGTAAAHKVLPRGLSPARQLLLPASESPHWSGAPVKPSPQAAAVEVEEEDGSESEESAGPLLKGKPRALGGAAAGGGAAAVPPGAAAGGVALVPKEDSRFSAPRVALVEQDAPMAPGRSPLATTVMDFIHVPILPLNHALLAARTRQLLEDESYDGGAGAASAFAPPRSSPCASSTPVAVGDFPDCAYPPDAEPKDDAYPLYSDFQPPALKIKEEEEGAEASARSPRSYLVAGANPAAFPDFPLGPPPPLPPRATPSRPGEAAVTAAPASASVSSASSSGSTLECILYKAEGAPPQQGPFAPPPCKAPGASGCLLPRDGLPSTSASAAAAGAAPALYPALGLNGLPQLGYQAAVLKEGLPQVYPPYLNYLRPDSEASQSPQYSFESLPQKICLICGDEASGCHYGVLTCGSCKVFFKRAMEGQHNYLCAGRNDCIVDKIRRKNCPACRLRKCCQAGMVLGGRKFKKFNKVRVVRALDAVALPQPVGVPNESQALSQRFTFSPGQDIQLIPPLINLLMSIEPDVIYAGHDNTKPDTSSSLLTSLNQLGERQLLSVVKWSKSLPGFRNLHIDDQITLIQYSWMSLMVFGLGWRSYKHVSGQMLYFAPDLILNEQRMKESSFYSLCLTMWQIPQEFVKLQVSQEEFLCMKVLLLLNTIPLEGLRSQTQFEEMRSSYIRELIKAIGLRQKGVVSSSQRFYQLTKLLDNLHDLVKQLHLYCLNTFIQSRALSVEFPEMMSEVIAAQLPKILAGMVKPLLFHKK

Cannabinoid receptor 1 = Cannabinoid receptor 1 (Homo sapiens, UniProt P21554); format: functional, cell-based
Chain of Cannabinoid receptor 1 (P21554 whole entry): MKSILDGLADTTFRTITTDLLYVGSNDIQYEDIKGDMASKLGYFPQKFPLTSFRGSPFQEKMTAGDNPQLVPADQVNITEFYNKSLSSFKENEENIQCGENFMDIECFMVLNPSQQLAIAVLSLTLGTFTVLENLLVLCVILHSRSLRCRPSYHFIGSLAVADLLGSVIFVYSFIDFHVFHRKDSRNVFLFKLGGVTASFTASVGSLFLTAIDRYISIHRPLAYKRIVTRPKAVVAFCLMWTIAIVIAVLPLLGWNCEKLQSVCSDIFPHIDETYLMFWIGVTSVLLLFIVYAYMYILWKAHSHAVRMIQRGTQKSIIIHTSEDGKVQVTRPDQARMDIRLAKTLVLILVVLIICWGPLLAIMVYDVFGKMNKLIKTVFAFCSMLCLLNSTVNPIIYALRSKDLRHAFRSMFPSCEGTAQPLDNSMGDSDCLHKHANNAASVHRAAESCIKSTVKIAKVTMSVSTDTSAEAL
Further: assay procedure not described here.

SMILES	AC50 [1] [µM]	AC50 [2] [µM]	AC50 [3] [µM]	AC50 [4] [µM]	AC50 [5] [µM]	AC50 [6] [µM]	AC50 [7] [µM]	AC50 (Progesterone receptor) [µM]	AC50 (Cannabinoid receptor 1) [µM]
N#Cc1ccccc1-c1cc(-c2ccccn2)cn(-c2ccccc2)c1=O	> 30	> 30	> 30	> 30	> 30	> 30	> 30	> 30	> 30
N=C(N)NCCCCCCC(=O)NC(O)C(=O)NCCCCNCCCN (configuration not stated)	> 30	> 30	> 30	> 30	> 30	> 30	> 30	> 30	> 30
C=C[C@@]1(C)CC(=O)[C@]2(O)[C@@]3(C)[C@@H](O)CCC(C)(C)[C@@H]3[C@H](OC(=O)CCN(C)C)[C@H](OC(C)=O)[C@@]2(C)O1	> 30	> 30	> 30	> 30	> 30	> 30	8.3	> 30	> 30
CC(=O)OCC(=O)[C@@]1(O)CC[C@H]2[C@@H]3CCC4=CC(=O)CC[C@]4(C)C3=CC[C@@]21C [ANECORTAVE ACETATE]	> 30	> 10	> 10	> 10	> 10	> 10	> 30	> 30	> 30
O=C(CCCN1CCC(n2c(O)nc3ccccc32)CC1)c1ccc(F)cc1 [BENPERIDOL]	13	6.59	> 30	13	> 30	> 30	> 30	> 30	> 30
CCN(CC)C(=O)C1CN2CCc3cc(OC)c(OC)cc3C2CC1OC(C)=O (configuration not stated) [BENZQUINAMIDE]	17	0.32	> 30	> 30	> 30	> 30	> 30	> 30	> 30
CCC(=O)OCC(=O)[C@@]1(OC(=O)CC)[C@@H](C)C[C@H]2[C@@H]3CCC4=CC(=O)C=C[C@]4(C)[C@@]3(F)[C@@H](O)C[C@@]21C [BETAMETHASONE DIPROPIONATE]	> 30	> 30	> 30	> 30	> 30	> 30	> 30	0.3	> 30
CCCCC1(CC)C(=O)NC(=O)NC1=O [BUTETHAL]	> 30	> 30	> 30	> 30	–	> 30	> 30	> 30	> 30
CCOC(=O)NNc1ccc(N(CC)CC(C)O)nn1 (configuration not stated) [CADRALAZINE]	> 30	> 30	> 30	> 30	> 30	> 30	> 30	> 30	> 30
C=CC1=C(C(=O)O)N2C(=O)[C@@H](NC(=O)/C(=N\OCC(=O)O)c3csc(N)n3)[C@H]2SC1 [CEFIXIME]	–	–	> 30	> 30	–	> 30	> 30	> 30	> 30
CO[C@@]1(NC(=O)Cc2cccs2)C(=O)N2C(C(=O)O)=C(COC(N)=O)CS[C@@H]21 [CEFOXITIN]	> 30	> 30	> 30	> 30	> 10	> 30	> 30	> 30	> 30
CCN(CC)CCOC(=O)c1ccc(N)cc1Cl [CHLOROPROCAINE]	17	> 30	> 30	> 30	–	> 30	> 30	> 30	> 30
COCCOC(=O)C1=C(C)NC(C)=C(C(=O)OC/C=C/c2ccccc2)C1c1cccc([N+](=O)[O-])c1 (configuration not stated) [CILNIDIPINE]	> 30	> 30	> 30	> 30	> 30	> 30	> 30	> 30	> 30
O=C(O)c1ccccc1OP(=O)(O)O [FOSFOSAL]	> 30	> 30	> 30	> 30	–	> 30	> 30	> 30	> 30
CCCC[C@H](C)C[C@H](O)/C=C/[C@H]1[C@H](O)CC(=O)[C@@H]1CCCC/C=C/C(=O)O [LIMAPROST]	> 30	> 30	–	> 30	> 30	> 30	> 30	> 30	> 30
CC[N+]1(C)CCCC(OC(=O)C(O)(c2ccccc2)c2ccccc2)C1 (configuration not stated) [PIPENZOLATE]	> 30	> 30	> 30	0.023	> 30	> 30	–	> 30	> 30
Cc1ccc2c(-c3ccccc3)nc(=O)n(C(C)C)c2c1 [PROQUAZONE]	> 30	–	> 30	> 30	> 30	> 30	> 30	> 30	> 30
CN1CCN(c2c(F)cc3c(=O)c(C(=O)O)cn4c3c2SCC4)CC1 [RUFLOXACIN]	> 30	–	> 30	> 30	> 30	> 30	> 30	> 30	> 30
